The subject of experiment [1] is CMKLR1. The conditions noted are these: ref [13], [22]; cited from earlier work.
The test system of experiment [2] is GPR1. The conditions noted are these: ref [13], [22]; cited from earlier work.
Experiment [3] has as its system CCRL2. The conditions noted are these: cited from earlier work.
In experiment [4] the target is T1, Nluc‐CMKLR1‐eYFP (human, UniProt Q99788-2 1-371).
T1 sequence: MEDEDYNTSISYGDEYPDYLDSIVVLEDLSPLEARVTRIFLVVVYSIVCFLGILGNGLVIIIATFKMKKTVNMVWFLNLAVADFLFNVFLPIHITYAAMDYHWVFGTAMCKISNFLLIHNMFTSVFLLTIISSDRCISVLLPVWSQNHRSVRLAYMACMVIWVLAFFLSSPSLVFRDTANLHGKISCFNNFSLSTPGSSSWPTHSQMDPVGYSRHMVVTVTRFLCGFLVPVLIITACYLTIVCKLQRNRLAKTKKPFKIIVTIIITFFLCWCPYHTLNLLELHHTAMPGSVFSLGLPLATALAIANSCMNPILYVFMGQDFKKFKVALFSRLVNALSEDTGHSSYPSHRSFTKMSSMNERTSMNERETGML
Nature of the experiment: FRET or BRET.

Experiment [5] concerns the target T2, Nluc‐GPR1‐eYFP (human, UniProt P46091 1-355).
T2 sequence: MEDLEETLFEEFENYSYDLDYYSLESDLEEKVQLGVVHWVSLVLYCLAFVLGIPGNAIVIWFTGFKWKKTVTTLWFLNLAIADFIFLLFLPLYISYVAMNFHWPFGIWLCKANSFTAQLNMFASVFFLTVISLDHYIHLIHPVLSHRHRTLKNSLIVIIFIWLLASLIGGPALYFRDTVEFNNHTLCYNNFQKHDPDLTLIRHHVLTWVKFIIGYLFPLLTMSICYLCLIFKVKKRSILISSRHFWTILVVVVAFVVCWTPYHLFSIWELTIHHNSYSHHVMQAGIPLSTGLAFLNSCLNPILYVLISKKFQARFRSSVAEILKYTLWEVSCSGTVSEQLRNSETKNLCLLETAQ
Description: FRET or BRET. For orientation: BRET reads energy transfer from a luciferase to a nearby fluorophore.

Experiment [6] addresses T3, CMKLR1 (Homo sapiens, UniProt Q99788).
T3 sequence (Q99788 1-371 isoform Q99788-2): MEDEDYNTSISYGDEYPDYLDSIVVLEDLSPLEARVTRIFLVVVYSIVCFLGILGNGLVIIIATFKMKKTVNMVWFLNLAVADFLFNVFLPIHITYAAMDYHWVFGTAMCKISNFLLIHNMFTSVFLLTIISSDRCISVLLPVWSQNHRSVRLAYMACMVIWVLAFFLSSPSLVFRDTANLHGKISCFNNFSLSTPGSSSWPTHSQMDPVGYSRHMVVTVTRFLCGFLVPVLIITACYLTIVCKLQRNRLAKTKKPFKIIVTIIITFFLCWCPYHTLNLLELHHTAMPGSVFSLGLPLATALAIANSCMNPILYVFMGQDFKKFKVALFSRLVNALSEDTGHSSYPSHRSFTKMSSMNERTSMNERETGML
Nature of the experiment: IP-One assay. The experiment is classed as cell-based. The conditions noted are these: [K^141(TAMRA)]ChemS157 vs ChemS157, COS-7 cells.

Experiment [7] has as its target T4, Nluc‐GPR1 (Homo sapiens, UniProt P46091).
T4 sequence (P46091 1-355): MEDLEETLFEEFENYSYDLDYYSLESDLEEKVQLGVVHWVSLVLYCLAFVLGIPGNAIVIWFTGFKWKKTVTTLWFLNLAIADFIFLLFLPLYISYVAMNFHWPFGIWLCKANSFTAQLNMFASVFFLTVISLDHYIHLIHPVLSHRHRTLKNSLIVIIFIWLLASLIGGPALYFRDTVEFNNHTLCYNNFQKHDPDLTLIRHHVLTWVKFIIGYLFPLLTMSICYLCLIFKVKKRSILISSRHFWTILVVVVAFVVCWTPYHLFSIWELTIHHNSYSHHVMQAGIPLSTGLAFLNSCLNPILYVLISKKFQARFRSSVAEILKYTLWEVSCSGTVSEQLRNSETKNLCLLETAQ
Nature of the experiment: NanoBRET saturation binding at Nluc-GPR1. The conditions noted are these: Nluc-GPR1 vs Nluc-CMKLR1.

For orientation: EC50 means the concentration giving half of the maximal effect. A lower EC50 goes with greater potency.

As to “ChemS157: most active chemerin form truncated at position S157, 137 amino acids; full‐length protein by recombinant expression”, the binding affinity entry in experiment [1] is “high affinity”; in experiment [2], “high affinity”; in experiment [3] (ref [13], [22]), “high affinity”.

With “chemerin: 16 kDa protein expressed in liver, skin, lung or white adipose tissue; adipokine”, the “cellular response at CCRL2” value in experiment [3] (described to bind chemerin, no reference printed directly) is “leads to no cellular response”.

B1: [K^141(TAMRA)]ChemS157 (ligand)
chain: ELTEAQRRGLQVALEEFHKHPPVQWAFQETSVESAVDTPFPAGIFVRLEFKLQQTSCRKRDWKKPECKVRPNGRKRKCLACIKLGSEDKVLGRLVHCPIETQVLREAEEHQETQCLRVQRKGEDPHSFYFPGQFAFS
modifications: TAMRA on the side chain of lysine 141
For the molecule B1, the results for the EC50 in experiment [4] and in experiment [5] were 75.9 nM and 112 nM, respectively.

B2: [K^141(TAMRA)]ChemS157: TAMRA‐labeled full-length ChemS157, lysine 141 labeled, semi‐synthetic by native chemical ligation (protein)
chain: ELTEAQRRGLQVALEEFHKHPPVQWAFQETSVESAVDTPFPAGIFVRLEFKLQQTSCRKRDWKKPECKVRPNGRKRKCLACIKLGSEDKVLGRLVHCPIETQVLREAEEHQETQCLRVQRKGEDPHSFYFPGQFAFS
modifications: TAMRA on the side chain of lysine 141; left off: [His]10-[…], N-terminal, kept
As to B2, the “EC50 fold higher than ChemS157 without the TAMRA label” value in experiment [6] is given as 2.5 fold. Further, in experiment [7], the “shift of EC50 between Nluc-CMKLR1 and Nluc-GPR1” value is 1.5 fold.

The values are drawn from PMC10092101 (Chemmedchem, 2022).
